Tests used:
[1] = target: Cdc7 (Homo sapiens, UniProt O00311); assay: Rapid dilution studies (residence time, dissociation kinetics); format: binding
[2] = tested on: panel of 235 cancer cell lines; assay: CellTiter-Glo luminescent cell viability assay, 72-hour incubation; format: cell-based
Experimental: The concentration-dependent effect of SRA141 on cell viability was determined in a panel of 235 cancer cell lines, utilizing the CellTiter-Glo™ luminescence assay (Promega) with a 72-hour drug incubation period. The 50% inhibition concentration (IC50) was determined in the cancer cell lines using Cell Titer-Glo® luminescent cell viability assay after incubation with SRA141 at different concentrations.

[3] = tested on: MV-4-11 xenograft tumors; assay: MV-4-11 acute myeloid leukemia xenograft, SRA141 monotherapy; format: in vivo, mouse; conditions: for average tumor volume at day 21: 3 weeks; for tumor growth inhibition: Day 21
Experimental: The efficacy of a Cdc7 inhibitor (compound I-D, also named SRA141) alone as a monotherapy was tested in xenografts using an acute myeloid leukemia cell line, MV-4-11. Female BALB/c mice bearing MV-4-11 xenograft tumors were administered SRA141 at various doses. 60 female BALB/C mice aged 5-6 weeks were subcutaneously inoculated MV-4-11 tumor cells. Mice were inoculated with 5.0×10^6 cells (mixed with Matrigel® at a ratio of 1:1) per mouse. 32 mice were selected and randomized into 4 groups and were orally administered (i) vehicle control (0.2 M HCl/0.5% MC400) or (ii) SRA141 at 30 or 60 mg/kg BID for 3 weeks or (iii) SRA141 120 mg/kg QD for 3 weeks (n=8 per treatment group). The body weights of mice were recorded once per week before grouping and mice conditions were recorded daily during the treatment. After 21 days of dosing, mice were sacrificed for tumor weight measurement. Tumor growth inhibition was calculated on Day 21, the final day of the study.

[4] = tested on: MCM2, Ser40/41 and Ser53 (Colo-205 cells); assay: Phosphorylation status of Cdc7 target MCM2 in cells; format: cell-based, human; conditions: Colo-205, 8 to 24 hours
Experimental: (§1) Colo-205 cells were treated with SRA141 (at concentrations between 0.033 and 3.3 μM) for 8 to 24 hours with subsequent assessment of the phosphorylation status of the downstream targets for Cdc7 (MCM2, Ser40/41 and Ser53), and the putative off-target kinases CDK8 (STAT1, Ser727); CDK7 and 9 (RNA pol II, Ser2); LATS2 (YAP1, Ser127) as well as the levels of MCL-1, known to be indirectly controlled by CDK9 (Gregory, 2015).

[5] = tested on: CDK8 (STAT1, Ser727); CDK7 and 9 (RNA pol II, Ser2); LATS2 (YAP1, Ser127); MCL-1; assay: Cellular substrates of putative off-target kinases in Colo-205 cells; format: cell-based, human
Experimental: as §1

[6] = tested on: bacterial reverse mutation; assay: In vitro bacterial reverse mutation assay
Description: SRA141 was negative for both mutagenicity and clastogenicity in in vitro bacterial reverse mutation and human lymphocyte chromosomal aberration assays.

[7] = tested on: MV-4-11 tumor xenografts; assay: Rat xenograft model of AML (MV-4-11), SRA141 monotherapy; format: in vivo; parameters: complete regressions (tumor volume <13.5 mm3 for 3 consecutive measurements): unit not given here; conditions: for tumor growth inhibition (TGI): 5 days of 7-day cycle, 4 weeks, Day 42; for median tumor volume: in mm³ (unit assumed)
Experimental: The efficacy of a Cdc7 inhibitor (compound SRA141) as a monotherapy was tested in a rat xenograft model of Acute Myelogenous Leukemia (AML) (FIG. 2). Female rnu/rnu rats were inoculated subcutaneously with 1×10^7 MV-4-11 human acute myelogenous leukemia cells. MV-4-11 cells were injected in a totally volume of 0.1 mL PBS in 1:1 Matrigel®. Rats began SRA141 treatment when tumors reached an average size of 300-400 mm^3. Rats bearing MV-4-11 tumor xenografts were orally administered (i) vehicle control (0.5% CMC-Na/1% Poloxamer 188) or (ii) SRA141 at 75 mg/kg BID for 5 consecutive days of a 7-day cycle for 4 weeks or (iii) SRA141 at 150 mg/kg QD for 5 consecutive days of a 7-day cycle for 4 weeks (n=10 per treatment group). Tumor volume measurements were taken biweekly and body weight measurements were taken biweekly to day 15, then daily to end of study. Tumor growth inhibition was calculated on Day 42, the final day of the study.

[8] = tested on: Colo-205 tumor xenografts; assay: Colo-205 colorectal xenograft study (mouse); format: in vivo; conditions: for tumor growth inhibition: 17 days, Day 16
Experimental: Female BALB/c mice bearing Colo-205 tumor xenografts were orally administered (i) vehicle (0.2 M HCl/0.5% MC400) or (ii) SRA141 30 or 60 mg/kg BID for 17 days or (iii) SRA141 120 mg/kg QD for 17 days (n=8 per treatment group). Tumor growth inhibition was calculated on Day 16, the final day of the study.

[9] = In vitro plasma protein binding; format: in vitro ADME; conditions: range given for mouse and dog together
[10] = tested on: three AML cell lines (EOL-1, Molm-16 and MV-4-11) and three AML PDX models (AM5512, AM7440 and AM7577); assay: AML 3D cultures, summary over models; format: cell-based; conditions: five of the six models; read-out: IC50 range
Experimental: The activity of SRA141 was investigated in in vitro and ex vivo three-dimensional (3D) cultures prepared from three AML cell lines (EOL-1, Molm-16 and MV-4-11) and three AML PDX models (AM5512, AM7440 and AM7577), respectively. Tumor cultures were treated with SRA141 (0.08 to 33 μM) for 5 days.

[11] = In vitro plasma protein binding; format: in vitro ADME; conditions: rat
[12] = In vitro plasma protein binding; format: in vitro ADME; conditions: human

Sequence of Cdc7 (O00311 whole entry): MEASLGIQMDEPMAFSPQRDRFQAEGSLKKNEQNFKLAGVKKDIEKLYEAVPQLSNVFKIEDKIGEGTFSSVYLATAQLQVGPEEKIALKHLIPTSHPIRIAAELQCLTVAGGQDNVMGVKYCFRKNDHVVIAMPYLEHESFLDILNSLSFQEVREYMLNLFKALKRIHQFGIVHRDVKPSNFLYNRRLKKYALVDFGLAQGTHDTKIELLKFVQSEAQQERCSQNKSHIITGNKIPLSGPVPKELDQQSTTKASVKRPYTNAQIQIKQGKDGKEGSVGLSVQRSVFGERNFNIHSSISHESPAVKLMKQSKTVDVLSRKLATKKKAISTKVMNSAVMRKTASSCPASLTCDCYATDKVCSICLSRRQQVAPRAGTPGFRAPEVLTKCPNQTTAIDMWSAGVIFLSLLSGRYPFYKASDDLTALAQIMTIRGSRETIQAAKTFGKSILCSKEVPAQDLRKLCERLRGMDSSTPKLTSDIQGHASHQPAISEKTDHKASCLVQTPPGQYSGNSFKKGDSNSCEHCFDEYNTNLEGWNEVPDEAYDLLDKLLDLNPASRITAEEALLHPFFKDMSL
Sequence of Cdc7 (Q9UBU7 whole entry partner): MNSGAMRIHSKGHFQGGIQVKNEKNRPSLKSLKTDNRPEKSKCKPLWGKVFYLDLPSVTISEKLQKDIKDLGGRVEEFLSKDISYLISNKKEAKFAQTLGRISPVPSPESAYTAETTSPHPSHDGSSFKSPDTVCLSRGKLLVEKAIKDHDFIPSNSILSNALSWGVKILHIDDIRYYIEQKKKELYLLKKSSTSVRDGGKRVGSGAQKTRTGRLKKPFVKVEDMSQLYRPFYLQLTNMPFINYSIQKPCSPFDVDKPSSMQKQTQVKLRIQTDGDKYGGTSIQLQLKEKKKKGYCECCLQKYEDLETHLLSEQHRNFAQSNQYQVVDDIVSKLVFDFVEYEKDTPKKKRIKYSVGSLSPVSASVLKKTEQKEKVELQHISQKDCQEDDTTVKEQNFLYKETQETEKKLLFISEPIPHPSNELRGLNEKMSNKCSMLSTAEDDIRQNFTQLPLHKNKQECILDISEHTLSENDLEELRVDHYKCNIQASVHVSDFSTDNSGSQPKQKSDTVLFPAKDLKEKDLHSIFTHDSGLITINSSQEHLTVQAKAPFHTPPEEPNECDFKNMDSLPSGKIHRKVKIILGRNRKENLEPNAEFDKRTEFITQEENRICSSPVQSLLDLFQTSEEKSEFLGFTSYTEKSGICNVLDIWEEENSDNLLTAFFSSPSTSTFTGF

CCOC(=O)C1=C(NN2CCN(CC(F)(F)F)CC2)O/C(=C\c2c[nH]c3ncccc23)C1=O [SRA141]
koff ([1]; at 5 nM): 5.33e-05 s⁻¹ | residence time ([1]; rapid dilution, read-out: residence time t1/2): 215 min | activity in hematologic-derived cell lines ([2]; 59 hematologic cancer cell lines): Significant activity | IC50 ([2]; solid tumor cell lines of bladder, sarcoma, colon and cecum, renal, head-and-neck, melanoma, gastric lineages): < 3 µM | average relative body weight change (RCBW) at day 21 ([3]; 30 mg/kg BID): 16.39% | average tumor volume at day 21 ([3]; 30 mg/kg BID oral): 655.68 mm^3 | tumor growth inhibition ([3]; 30 mg/kg BID): 59% | average relative body weight change (RCBW) at day 21 ([3]; 60 mg/kg BID): 3.18% | average tumor volume at day 21 ([3]; 60 mg/kg BID oral): 300.77 mm^3 | tumor growth inhibition ([3]; 60 mg/kg BID): 81% | average relative body weight change (RCBW) at day 21 ([3]; 120 mg/kg QD): 8.47% | average tumor volume at day 21 ([3]; 120 mg/kg QD oral): 530.83 mm^3 | tumor growth inhibition ([3]; 120 mg/kg QD): 67% | tolerability ([3]; all treatments): tolerated with no significant body weight loss | concentration from which MCM2 phosphorylation at Ser40/41 and Ser53 was reduced [4]: 0.033 µM | inhibition of STAT1, YAP1 and MCL-1 ([5]; 3.3 μM): Minimal inhibition | phosphorylation status (or protein level of MCL-1) of off-target substrates ([5]; up to 1 μM): no significant change | mutagenicity [6]: negative | complete regressions (tumor volume <13.5 mm3 for 3 consecutive measurements) ([7]; 75 mg/kg BID): 1 | partial regressions (tumor volume <50% of initial volume for 3 consecutive measurements) ([7]; 75 mg/kg BID): 3 | tumor growth inhibition (TGI) ([7]; 75 mg/kg BID): 86.1% | median tumor volume ([7]; 75 mg/kg group (n=8)): 1838 | partial regressions ([7]; 150 mg/kg QD): 2 | tumor growth inhibition (TGI) ([7]; 150 mg/kg QD): 86.7% | median tumor volume ([7]; 150 mg/kg group (n=9)): 1764 | tolerability ([7]; all treatments): well tolerated with no significant body weight loss | tumor growth inhibition ([8]; 30 mg/kg BID): 15% | tumor growth inhibition ([8]; 60 mg/kg BID): 58% | tumor growth inhibition ([8]; 120 mg/kg QD): 37% | tolerability ([8]; all treatments, dosing suspended for some mice for >15% body weight loss): All treatments were tolerated | fraction unbound [9]: 0.23 to 0.42 | IC50 [10]: 0.15 to 1.6 µM | fraction unbound [11]: < 0.1 | fraction unbound [12]: < 0.1

— patent US12533353B2, “Methods of treatment of cancer comprising CDC7 inhibitors” (CARNA BIOSCIENCES, INC., priority 2018, dated 2026)
